How the values were obtained:
[1] = molecular target: T1, human Type 1 IGF receptor (Homo sapiens, UniProt P08069); experiment: KIRA for phosphorylation of the human Type 1 receptor in MCF-7 cells; format: cell-based; details: substance alone
T1 construct: host or cells: MCF-7

[2] = molecular target: T2, recombinant human (rh) IGFBP-1 (Homo sapiens, UniProt P08833); experiment: ^125I-IGF-I competitive binding plate assay, IGFBP-1; details: displacement of ^125I-IGF-I, FIG. 6
T2 sequence (P08833 26-259): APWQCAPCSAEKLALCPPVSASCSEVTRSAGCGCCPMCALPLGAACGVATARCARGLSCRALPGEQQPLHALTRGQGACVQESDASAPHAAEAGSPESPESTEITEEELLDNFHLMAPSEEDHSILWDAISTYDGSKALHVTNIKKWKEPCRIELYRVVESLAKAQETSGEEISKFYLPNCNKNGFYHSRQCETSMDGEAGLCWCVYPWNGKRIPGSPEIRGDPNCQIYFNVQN
Method: The mutant (Leu^24,Ala^31)hIGF-I was also tested for its ability to displace radio-labeled rhIGF-I off the IGFBPs in a competitive binding assay. This assay involves coating recombinant human (rh) IGFBP-1 or rhIGFBP-3 (160 ng/ml) onto 96-well plates overnight, blocking the plates for one hour with 0.5% BSA, adding rhIGF-I (250-0.08 ng/ml) or (Leu^24,Ala^31)hIGF-I for 1 hour, then adding 20,000 cpm of ^125I-IGF-I and incubating for 2 hours before washing and counting.
As an additional assay of peptide activity, several peptides were tested in an assay using ^125I-labeled IGF-I to measure inhibition of IGFBP binding, as described in Example 1 (Assay 3). Serial dilutions of peptide were added to an IGFBP-1 or an IGFBP-3 plate. Thereafter, ^125I-labeled IGF-I was added and the plates were incubated for 2 hours. The plates were then washed and counted to determine the amount of bound IGF-I.

[3] = test system: Zucker Diabetic Fatty (ZDF) rats; experiment: Long-term administration to diabetic rats incl. glucose tolerance test; format: in vivo, rat; details: for change in blood glucose two hours following the glucose challenge: glucose tolerance test day 14, 2 g/kg ip, 150 μg tid
Method: Obese male Zucker Diabetic Fatty (ZDF) rats (6-7 weeks of age, 225-250 g, Genetic Models Inc., Indianapolis, Ind. 46268) were group housed (3/cage) in a room controlled for temperature and lighting and fed the pelleted rat diet specified by the breeders (Purina 5008, 6% fat breeder chow) and tap water ad libitum. After three days acclimation, a blood sample was obtained from the tail vein for measurement of blood glucose and insulin, which was measured by rat-specific RIA (Linco Research Inc., St. Charles, Mo.). Animals were randomized into four treatment groups and into cages to give groups balance so as to have equivalent initial blood glucose levels, insulin levels, and body weights.
The experiment consisted of four groups of rats with seven rats per group.
1.0 The mutant (Leu^24,Ala^31)hIGF-I was prepared at two concentrations (1.5 mg/ml, and 0.5 mg/ml) so that with three injections per day two doses were given (a total of 450 μg/d or 150 μg/d). rhIGF-I was prepared at one concentration (1.5 mg/ml) so that with three injections per day one dose was given (450 μg/d). A fourth group of rats were given the excipient. The injections, each of 100 μl volume, were given at 7am, 1pm, and 7pm for 15 days without disrupting the controlled diurnal lighting of the vivarium room. Body weights were measured each day at 1 pm.
Blood samples were collected from non-fasted rats on the evening before the first day of dosing and on days 3, 7, and 10. Blood samples (400 μl) on days 3, 7, and 10 were taken by bleeding from a tail vein one hour after the mid-day injection. The blood was allowed to clot, and serum was separated and stored before analysis.
A glucose tolerance test was performed on day 14 of the study. Rats received their regular morning injection and then their food was withdrawn. After a 3-5-hour fast a blood sample (400 μl) was taken via the tail vein. Rats then received 2 g/kg dextrose(50%) by intraperitoneal (ip) injection. A blood sample (200 μl) was taken via tail vein at 10, 60, and 120 minutes after dextrose administration. Blood was allowed to clot and serum was separated and stored for measurement of glucose and insulin concentrations. After the glucose tolerance test was completed, animals were re-fed.
On day 15, one hour after the morning injection, rats were asphyxiated with carbon dioxide and bled by cardiac puncture. Blood was allowed to clot and serum was separated and frozen. Spleen, thymus, heart, liver, kidney, and perirenal fat were removed, blotted dry, and immediately weighed.
Statistical comparisons for each time point were made by an analysis of variance with a Duncan's Multiple Range test. A p value of <0.05 was considered as being statistically significant. All data are represented as the mean +SEM, with seven animals per treatment group.

L7 murine fibroblasts = details: Bayne et al.; cited from earlier work
[4] = Day 10, 150 μg three times a day
[5] = day 13, 150 μg three times a day SC
[6] = glucose tolerance test day 14, 150 μg tid

T1 sequence (P08069 31-736 limits assumed): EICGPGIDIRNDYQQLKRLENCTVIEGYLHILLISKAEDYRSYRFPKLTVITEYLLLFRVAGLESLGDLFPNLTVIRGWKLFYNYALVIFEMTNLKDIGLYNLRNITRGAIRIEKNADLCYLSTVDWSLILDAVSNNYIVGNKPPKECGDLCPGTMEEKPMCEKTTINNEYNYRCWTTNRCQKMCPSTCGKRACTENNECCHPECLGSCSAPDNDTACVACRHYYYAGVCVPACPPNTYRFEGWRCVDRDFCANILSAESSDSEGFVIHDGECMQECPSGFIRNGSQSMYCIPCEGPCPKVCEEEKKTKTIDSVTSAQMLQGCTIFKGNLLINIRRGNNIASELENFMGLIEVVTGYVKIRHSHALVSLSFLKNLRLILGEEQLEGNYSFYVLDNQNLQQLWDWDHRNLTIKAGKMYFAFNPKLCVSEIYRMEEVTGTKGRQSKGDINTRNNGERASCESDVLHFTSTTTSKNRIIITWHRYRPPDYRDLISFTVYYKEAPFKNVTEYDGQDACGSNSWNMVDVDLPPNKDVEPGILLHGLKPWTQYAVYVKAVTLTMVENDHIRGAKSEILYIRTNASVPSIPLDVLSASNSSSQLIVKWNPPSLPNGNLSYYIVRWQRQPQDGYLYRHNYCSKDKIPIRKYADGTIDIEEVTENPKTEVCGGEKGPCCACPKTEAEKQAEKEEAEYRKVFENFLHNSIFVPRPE
T1 sequence (P08069 741-1367 partner limits assumed): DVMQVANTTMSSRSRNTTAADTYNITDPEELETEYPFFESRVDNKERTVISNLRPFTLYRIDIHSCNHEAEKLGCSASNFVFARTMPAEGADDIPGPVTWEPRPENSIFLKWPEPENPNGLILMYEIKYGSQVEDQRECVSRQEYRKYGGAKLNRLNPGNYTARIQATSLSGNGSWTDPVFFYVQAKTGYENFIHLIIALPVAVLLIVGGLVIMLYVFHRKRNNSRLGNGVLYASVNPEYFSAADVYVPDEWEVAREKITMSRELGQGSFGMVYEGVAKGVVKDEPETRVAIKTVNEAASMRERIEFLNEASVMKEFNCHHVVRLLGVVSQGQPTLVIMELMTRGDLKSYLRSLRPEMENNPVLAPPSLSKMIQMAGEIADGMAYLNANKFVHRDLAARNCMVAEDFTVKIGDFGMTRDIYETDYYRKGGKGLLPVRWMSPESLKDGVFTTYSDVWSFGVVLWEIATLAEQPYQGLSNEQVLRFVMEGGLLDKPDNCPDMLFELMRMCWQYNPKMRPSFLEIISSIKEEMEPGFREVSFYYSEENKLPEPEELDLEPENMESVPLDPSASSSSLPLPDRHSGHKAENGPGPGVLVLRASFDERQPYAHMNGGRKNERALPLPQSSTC

Row | Substance | phosphorylation of the IGF-I receptor (KIRA) [1] | binding affinity to recombinant IGFBP-1 [2] | rise in blood glucose, percentage change from basal ([3]; Day 10, 50 μg three times a day) | rise in blood glucose, percentage change from basal [3, 4] | body weight gain ([3]; day 13, 50 μg three times a day SC) | body weight gain [3, 5] | insulin in response to the glucose challenge ([3]; glucose tolerance test day 14, 50 μg tid) | insulin in response to the glucose challenge [3, 6] | change in blood glucose two hours following the glucose challenge [3] | reduction in activity, ^3H thymidine incorporation (L7 murine fibroblasts)
1 | (Leu^24,Ala^31)hIGF-I | did not cause any change in receptor phosphorylation | affinity only several fold different from that of wild-type hIGF-I | 84±20% | 74±22% | 100 ± 2.1 g | 105.1 ± 2.3 g | 10.2 ± 0.7 ng/mL | 10.6 ± 0.6 ng/mL | 59 ± 11 mg/dL | more than 200 fold
2 | IGF-I: native-sequence recombinant human insulin-like growth factor-I (Genentech) |  |  |  | 25±10% |  | 114.5 ± 1.6 g |  | 12.2 ± 0.7 ng/mL | 39 ± 12 mg/dL | 

— US6632794B1, “Insulin-like growth factor agonist molecules” (Genentech, Inc., priority 1997, dated 2003)
